We go through 20 molecules from patent US20100104659A1, “BENZOPYRANOPYRAZOLES” (priority 2006, published 2010).

The experiment has as its system RKO human colon adenocarcinoma cells (RKOp27 subclone), proliferating. Description: Alamar Blue cell viability assay, RKO p27 uninduced (proliferating). As to conditions: RKOp27, 72 h, read-out: −log EC50 [mol/l] RKO p27 uninduced (proliferating), anti-proliferative/cytotoxic activity (converted).
Description: The anti-proliferative/cytotoxic activity of the compounds described herein can be tested on subclones of RKO human colon adenocarcinoma cells (Schmidt et al., Oncogene 19, 2423-2429; 2000) using the Alamar Blue cell viability assay (described in O'Brien et al. Eur J Biochem 267, 5421-5426, 2000). The compounds are dissolved as 10 mM solutions in DMSO and subsequently diluted in semi-logarithmic steps. DMSO dilutions are further diluted 1:100 into Dulbecco's modified Eagle's medium (DMEM) containing 10% fetal calf serum to a final concentration twice as much as the final concentration in the test. RKO subclones are seeded into 96 well flat bottom plates at a density of 4000 cells per well in a volume of 50 μl per well. 24 hours after seeding the 50 μl each of the compound dilutions in DMEM medium are added into each well of the 96 well plate. Each compound dilution is tested as triplicates. Wells containing untreated control cells are filled with 50 μl DMEM medium containing 1% DMSO. The cells are then incubated with the substances for 72 hours at 37° C. in a humidified atmosphere containing 5% carbon dioxide. To determine the viability of the cells, 10 μl of an Alamar Blue solution (Biosource) are added and the fluorescence is measured at an extinction of 544 nm and an emission of 590 nm. For the calculation of the cell viability the emission value from untreated cells is set as 100% viability and the emission rates of treated cells are set in relation to the values of untreated cells. Viabilities are expressed as % values. The Graphpad Prism program (GraphPad Software, Inc) is used for the calculation of EC50 values for anti-proliferative/cytotoxic activity out of the obtained dose-response curves.
Each compound dilution is tested as triplicates. Wells containing untreated control cells are filled with 50 μl DMEM medium containing 1% DMSO. The cells are then incubated with the substances for 72 hours at 37° C. in a humidified atmosphere containing 5% carbon dioxide. To determine the viability of the cells, 10 μl of an Alamar Blue solution (Biosource) are added and the fluorescence is measured at an extinction of 544 nm and an emission of 590 nm. For the calculation of the cell viability the emission value from untreated cells is set as 100% viability and the emission rates of treated cells are set in relation to the values of untreated cells. Viabilities are expressed as % values. The Graphpad Prism program is used for the calculation of EC50 values out of the obtained dose-response curves. Viability is compared of proliferating cells grown in the absence of the inducer Ponasterone A, versus viability of cells arrested by the expression of ectopic p27Kip1 induced by Ponasterone A.
As for `CN(CCN1CCCCC1)C(=O)N1N=C2c3cc(F)ccc3OC[C@H]2[C@H]1c1ccccc1` (racemic) [Example 36, (3SR,3aSR)-8-Fluoro-3-phenyl-3a,4-dihydro-3H-chromeno[4,3-c]pyrazole-2-carboxylic acid methyl-(2-piperidin-1-yl-ethyl)-amide], the EC50 is 100 to 1000 nM.
Next, `CN(CCCN1CCCCC1)C(=O)N1N=C2c3cc(F)ccc3OC[C@H]2[C@H]1c1ccccc1` (racemic) [Example 37, (3SR,3aSR)-8-Fluoro-3-phenyl-3a,4-dihydro-3H-chromeno[4,3-c]pyrazole-2-carboxylic acid methyl-(3-piperidin-1-yl-propyl)-amide]: at most 100 nM; `CN(CCCN1CCC1)C(=O)N1N=C2c3cc(F)ccc3OC[C@H]2[C@H]1c1ccccc1` (racemic) [Example 38, (3SR,3aSR)-8-Fluoro-3-phenyl-3a,4-dihydro-3H-chromeno[4,3-c]pyrazole-2-carboxylic acid (3-azetidin-1-yl-propyl)-methyl-amide]: at most 100 nM.
As for `CC(C)NCCN(C)C(=O)N1N=C2c3cc(F)ccc3OC[C@H]2[C@H]1c1ccccc1` (racemic) [Example 39, (3SR,3aSR)-8-Fluoro-3-phenyl-3a,4-dihydro-3H-chromeno[4,3-c]pyrazole-2-carboxylic acid (2-isopropylamino-ethyl)-methyl-amide], the EC50 was at most 100 nM.
For `CN(CCNC(C)(C)C)C(=O)N1N=C2c3cc(F)ccc3OC[C@H]2[C@H]1c1ccccc1` (racemic) [Example 40, (3SR,3aSR)-8-Fluoro-3-phenyl-3a,4-dihydro-3H-chromeno[4,3-c]pyrazole-2-carboxylic acid (2-tert-butylamino-ethyl)-methyl-amide], the EC50 was at most 100 nM.
On to `CC(C)CNCCN(C)C(=O)N1N=C2c3cc(F)ccc3OC[C@H]2[C@H]1c1ccccc1` (racemic) [Example 41, (3SR,3aSR)-8-Fluoro-3-phenyl-3a,4-dihydro-3H-chromeno[4,3-c]pyrazole-2-carboxylic acid (2-isobutylamino-ethyl)-methyl-amide], for which the EC50 was at most 100 nM.
Regarding `CC(C)CNCCCN(C)C(=O)N1N=C2c3cc(F)ccc3OC[C@H]2[C@H]1c1ccccc1` (racemic) [Example 42, (3SR,3aSR)-8-Fluoro-3-phenyl-3a,4-dihydro-3H-chromeno[4,3-c]pyrazole-2-carboxylic acid (3-isobutylamino-propyl)-methyl-amide], the EC50 is 100 to 1000 nM.
For `CN(CCCNC(C)(C)C)C(=O)N1N=C2c3cc(F)ccc3OC[C@H]2[C@H]1c1ccccc1` (racemic) [Example 43, (3SR,3aSR)-8-Fluoro-3-phenyl-3a,4-dihydro-3H-chromeno[4,3-c]pyrazole-2-carboxylic acid (3-tert-butylamino-propyl)-methyl-amide], the EC50 is 100 to 1000 nM.
`CN(CCNC1CCC1)C(=O)N1N=C2c3cc(F)ccc3OC[C@H]2[C@H]1c1ccccc1` (racemic) [Example 44, (3SR,3aSR)-8-Fluoro-3-phenyl-3a,4-dihydro-3H-chromeno[4,3-c]pyrazole-2-carboxylic acid (2-cyclobutylamino-ethyl)-methyl-amide]: the EC50 is at most 100 nM.
With `CCN(CC)CCN(C)C(=O)N1N=C2c3cc(F)ccc3OC[C@H]2[C@H]1c1ccccc1` (racemic) [Example 45, (3SR,3aSR)-8-Fluoro-3-phenyl-3a,4-dihydro-3H-chromeno[4,3-c]pyrazole-2-carboxylic acid (2-diethylamino-ethyl)-methyl-amide] the figure was at most 100 nM; with `CCN(CC)CCCN(C)C(=O)N1N=C2c3cc(F)ccc3OC[C@H]2[C@H]1c1ccccc1` (racemic) [Example 46, (3SR,3aSR)-8-Fluoro-3-phenyl-3a,4-dihydro-3H-chromeno[4,3-c]pyrazole-2-carboxylic acid (3-diethylamino-propyl)-methyl-amide], at most 100 nM.
On to `COCCNCCN(C)C(=O)N1N=C2c3cc(F)ccc3OC[C@H]2[C@H]1c1ccccc1` (racemic) [Example 47, (3SR,3aSR)-8-Fluoro-3-phenyl-3a,4-dihydro-3H-chromeno[4,3-c]pyrazole-2-carboxylic acid [2-(2-methoxy-ethylamino)-ethyl]-methyl-amide], for which the EC50 was 100 to 1000 nM.
In the case of `COCCNCCCN(C)C(=O)N1N=C2c3cc(F)ccc3OC[C@H]2[C@H]1c1ccccc1` (racemic) [Example 48, (3SR,3aSR)-8-Fluoro-3-phenyl-3a,4-dihydro-3H-chromeno[4,3-c]pyrazole-2-carboxylic acid [3-(2-methoxy-ethylamino)-propyl]-methyl-amide], the EC50 is at most 100 nM.
Take `CN(CCO)CCN(C)C(=O)N1N=C2c3cc(F)ccc3OC[C@H]2[C@H]1c1ccccc1` (racemic) [Example 49, (3SR,3aSR)-8-Fluoro-3-phenyl-3a,4-dihydro-3H-chromeno[4,3-c]pyrazole-2-carboxylic acid {2-[(2-hydroxy-ethyl)-methyl-amino]-ethyl}-methyl-amide]: the EC50 was at most 100 nM.
With `CN(CCO)CCCN(C)C(=O)N1N=C2c3cc(F)ccc3OC[C@H]2[C@H]1c1ccccc1` (racemic) [Example 50, (3SR,3aSR)-8-Fluoro-3-phenyl-3a,4-dihydro-3H-chromeno[4,3-c]pyrazole-2-carboxylic acid {3-[(2-hydroxy-ethyl)-methyl-amino]-propyl}-methyl-amide], the EC50 is at most 100 nM.
Consider `C=CCNCCN(C)C(=O)N1N=C2c3cc(F)ccc3OC[C@H]2[C@H]1c1ccccc1` (racemic) [Example 51, (3SR,3aSR)-8-Fluoro-3-phenyl-3a,4-dihydro-3H-chromeno[4,3-c]pyrazole-2-carboxylic acid (2-allylamino-ethyl)-methyl-amide], for which the EC50 was 100 to 1000 nM.
For `C=CCNCCCN(C)C(=O)N1N=C2c3cc(F)ccc3OC[C@H]2[C@H]1c1ccccc1` (racemic) [Example 52, (3SR,3aSR)-8-Fluoro-3-phenyl-3a,4-dihydro-3H-chromeno[4,3-c]pyrazole-2-carboxylic acid (3-allylamino-propyl)-methyl-amide], the EC50 was 100 to 1000 nM.
With `CCN(C)CCN(C)C(=O)N1N=C2c3cc(F)ccc3OC[C@H]2[C@H]1c1ccccc1` (racemic) [Example 53, (3SR,3aSR)-8-Fluoro-3-phenyl-3a,4-dihydro-3H-chromeno[4,3-c]pyrazole-2-carboxylic acid [2-(ethyl-methyl-amino)-ethyl]-methyl-amide] the figure was at most 100 nM.
In the case of `CN(CCCNCC1CC1)C(=O)N1N=C2c3cc(F)ccc3OC[C@H]2[C@H]1c1ccccc1` (racemic) [Example 54, (3SR,3aSR)-8-Fluoro-3-phenyl-3a,4-dihydro-3H-chromeno[4,3-c]pyrazole-2-carboxylic acid [3-(cyclopropylmethyl-amino)-propyl]-methyl-amide], the EC50 is 100 to 1000 nM.
As to `CCN(C)CCCN(C)C(=O)N1N=C2c3cc(F)ccc3OC[C@H]2[C@H]1c1ccccc1` (racemic) [Example 55, (3SR,3aSR)-8-Fluoro-3-phenyl-3a,4-dihydro-3H-chromeno[4,3-c]pyrazole-2-carboxylic acid [3-(ethyl-methyl-amino)-propyl]-methyl-amide], the EC50 was at most 100 nM.
